Source: paper PMC6537752, “Molecular characterization of CHAD domains as inorganic polyphosphate-binding modules” (Life Science Alliance, 2019)

T1: CtCHAD (Chlorobaculum tepidum, UniProt Q8KE09)
T1 construct: gene CT0884; CHAD domain, residues 208-522; N-terminal 6xHis tag cleaved by TEV; E. coli BL21 (DE3) RIL; 36,194 D monomer; mainly dimer, some tetramer in solution
T1 sequence (Q8KE09 208-522): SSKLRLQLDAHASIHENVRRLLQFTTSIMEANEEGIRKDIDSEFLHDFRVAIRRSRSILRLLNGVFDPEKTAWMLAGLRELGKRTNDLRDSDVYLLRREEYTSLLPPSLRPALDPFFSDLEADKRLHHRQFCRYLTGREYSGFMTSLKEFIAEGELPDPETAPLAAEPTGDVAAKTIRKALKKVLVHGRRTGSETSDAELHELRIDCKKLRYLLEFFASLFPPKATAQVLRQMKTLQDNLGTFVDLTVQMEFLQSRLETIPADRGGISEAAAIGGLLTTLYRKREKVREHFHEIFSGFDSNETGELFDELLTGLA

T2: ygiF-TTM 1–200 (TTM) (Escherichia coli, UniProt P30871)
T2 sequence (P30871 1-200): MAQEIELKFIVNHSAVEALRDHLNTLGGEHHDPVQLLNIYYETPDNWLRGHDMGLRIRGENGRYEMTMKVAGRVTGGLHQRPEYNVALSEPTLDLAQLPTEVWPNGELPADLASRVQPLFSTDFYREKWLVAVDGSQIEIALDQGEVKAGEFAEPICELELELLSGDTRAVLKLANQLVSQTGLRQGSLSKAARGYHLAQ

T3: ygiF-full length 1–433 (FL) (Escherichia coli, UniProt P30871)
T3 sequence (P30871 1-433): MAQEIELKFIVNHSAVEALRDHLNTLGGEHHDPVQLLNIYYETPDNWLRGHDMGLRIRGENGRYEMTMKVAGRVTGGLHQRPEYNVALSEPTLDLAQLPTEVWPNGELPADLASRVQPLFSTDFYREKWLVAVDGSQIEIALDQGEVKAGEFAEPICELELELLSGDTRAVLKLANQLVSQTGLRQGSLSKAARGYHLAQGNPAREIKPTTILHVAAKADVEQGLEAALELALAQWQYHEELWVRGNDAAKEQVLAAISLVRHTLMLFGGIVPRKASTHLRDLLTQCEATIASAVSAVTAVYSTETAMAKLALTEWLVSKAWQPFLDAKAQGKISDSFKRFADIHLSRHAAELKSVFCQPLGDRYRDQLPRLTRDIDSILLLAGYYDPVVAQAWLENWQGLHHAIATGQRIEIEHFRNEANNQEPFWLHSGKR

B1: CtCHAD^208–522 (CHAD domain–containing protein from Chlorobium tepidum) (domain or fragment, UniProt Q8KE09 208-522, looked up)
chain: T1 sequence (Q8KE09 208-522)
notes: CHAD domain of the C. tepidum CHAD domain–containing protein, UniProt Q8KE09, residues 208-522; synthetic gene; not shown: His6, N-terminal, cleaved

Columns and labels:
CtCHAD = molecular target: T1, CtCHAD; test: grating-coupled interferometry competition against polyP-coated chip; assay type: binding
ygiF-TTM 1–200 (TTM) = molecular target: T2, ygiF-TTM 1–200 (TTM); test: malachite green phosphate release; assay type: biochemical; conditions: 10 nM enzyme, 500 μM substrate, 20 mM Bis-Tris propane pH 8.5, 150 mM NaCl, 5 mM MgCl2, 37°C, 7 min
[1] = molecular target: T3, ygiF-full length 1–433 (FL); test: malachite green phosphate release; assay type: biochemical; conditions: 10 nM enzyme, 500 μM substrate, 20 mM Bis-Tris propane pH 8.5, 150 mM NaCl, 5 mM MgCl2, 37°C, 7 min
[2] = molecular target: the molecule itself; test: SEC-RALS (size-exclusion chromatography with right-angle light scattering); CtCHAD incubated with 1 mM polyP (average chain length ∼30 Pi units) for 3 h at room temperature, 2 mg/ml, 20 mM Hepes pH 7.5, 150 mM NaCl, Superdex 200 10/300 increase, 35°C
[3] = molecular target: the molecule itself; test: SEC-RALS (size-exclusion chromatography with right-angle light scattering); apo CtCHAD, 2 mg/ml, 20 mM Hepes pH 7.5, 150 mM NaCl, Superdex 200 10/300 increase, 35°C
[4] = molecular target: the molecule itself; test: SEC; analytical size-exclusion chromatography, Superdex 200 Increase 10/300 GL, buffer A (50 mM PBS, pH 7.5, 500 mM NaCl), 500 μl of protein at 0.5 mg/ml, no polyP

Row | Molecule | IC50 (CtCHAD) [nM] | malachite green phosphate release (ygiF-TTM 1–200 (TTM)) | malachite green phosphate release [1] | stoichiometry N [2] | stoichiometry N [3] | stoichiometry N [4]
1 | O=P(O)(O)OP(=O)(O)OP(=O)(O)O [tripolyphosphate] | ~200 | The substrates tested were ATP (Merck), sodium tripolyphosphate (Merck), and polyP | CHAD domain stimulated the previously reported tripolyphosphatase activity of ygiF | – | – | –
2 | B1 | – | – | – | ≥ 4 | 4 | 2
